Here are results for 2 compounds from US20260183302A1, “PDK1 REGULATORY COMPOUND AND COMPOSITION CONTAINING THE SAME” (PROVIBIO CO., LTD., priority 2024, published 2026).

The test system of data set [1] is Human Melanoma cancer cell, Malme-3M. Kind of data set: Relative cell viability, Malme-3M (CCK-8). Particulars: 48 hours. The data set is classed as cell-based. How it is done:
(§1) Human-derived breast cancer cell line MCF-7, human-derived lung cancer cell line A549, human-derived colorectal cancer cell line HCT-116, human pancreatic cancer cell line AsPC-1, glioblastoma cell line A172, and melanoma cell line Malme-3M were obtained from the Korean Cell Bank. gastric cancer cell line SNU-719, and bladder cancer cell line T24 were cultured in RPMI-1640 medium containing 10% FBS.
(§2) Following stabilization, the cells were harvested using Trypsin-EDTA treatment, centrifuged at 1,200 rpm for 3 minutes, the supernatant was removed, and the cells were resuspended in the same medium. They were then seeded into a 96-well plate (Costar 96-well cell culture plate, Corning) at 100 μL per well, and the conditions were adjusted as indicated in Table 5.
The cells were cultured in a 5% CO2 incubator at 37° C. for 24 hours, and after stabilization of the cells, each plate was washed with 200 μL of PBS per well and treated with 50 μL of culture medium per well.
(§3) After that, 10 μL of CCK-8 was added to each well, and the plate was incubated again at 37° C. in a 5% CO2 incubator for 2 hours.
(§4) In other words, when the survival rate of untreated cells (DMSO) is set at 100%, the relative cell survival rate in each group treated with the drug at different concentrations is indicated.

Data set [2] relates to Human Bladder cancer cell, T24. Kind of data set: Relative cell viability, T24 (CCK-8). The following applies: 48 hours. The data set is classed as cell-based. How it is done: as §1, §2
The cells were cultured in a 5% CO2 incubator at 37° C. for 24 hours, and after stabilization of the cells, each plate was washed with 200 μL of PBS per well and treated with 50 μL of culture medium per well. […]
as §3, §4

The subject of data set [3] is Human multiple myeloma, KMS26. Kind of data set: Relative cell viability, KMS26 (CCK-8). The data set is classed as cell-based. The following applies: KMS26, 1 μM. On the procedure:
as §3, §4

The target in data set [4] is T1, full-length PDK1 (PDK1-FL) (Homo sapiens, UniProt O15530).
T1 construct: the full-length (PDK1-FL) protein of human-derived PDK1; His tag (inferred by me from the Ni-NTA purification); made in house; host or cells: Sf9 insect cells, baculovirus
T1 sequence (O15530 1-556): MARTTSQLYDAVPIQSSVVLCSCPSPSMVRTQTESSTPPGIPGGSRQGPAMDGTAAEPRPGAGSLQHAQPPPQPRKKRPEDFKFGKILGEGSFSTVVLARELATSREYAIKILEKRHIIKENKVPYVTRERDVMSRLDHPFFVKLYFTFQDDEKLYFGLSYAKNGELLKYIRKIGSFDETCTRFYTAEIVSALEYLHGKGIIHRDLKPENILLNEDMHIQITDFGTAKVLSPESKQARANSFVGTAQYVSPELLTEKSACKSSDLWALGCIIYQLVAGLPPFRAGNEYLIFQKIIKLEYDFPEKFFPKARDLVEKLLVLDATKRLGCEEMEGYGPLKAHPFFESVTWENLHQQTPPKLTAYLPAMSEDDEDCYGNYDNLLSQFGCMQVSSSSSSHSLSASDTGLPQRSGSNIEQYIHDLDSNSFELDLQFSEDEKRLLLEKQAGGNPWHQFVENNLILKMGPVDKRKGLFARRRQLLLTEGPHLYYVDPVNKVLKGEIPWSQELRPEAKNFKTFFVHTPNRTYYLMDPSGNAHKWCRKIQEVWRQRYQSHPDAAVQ
Kind of data set: Binding affinity by Microscale Thermophoresis (MST), full-length PDK1. The following applies: Kd full-length vs PKD fragment. On the procedure:
Microscale Thermophoresis (MST) analysis was performed to quantitatively measure the binding affinity between PDK1 protein and substrate peptides (PDKTide) or the company-developed low-molecular-weight compound (GO88).
The target proteins were the full-length (PDK1-FL) protein of human-derived PDK1 and the Protein Kinase Domain (PKD) fragment, which were expressed using a baculovirus expression system in insect cell lines (Sf9).
The purity of the purified proteins was confirmed by SDS-PAGE and Coomassie Brilliant Blue staining.
The purified protein was labeled with a fluorescent label using the Monolith NT™ RED-NHS Protein Fluorescent Labeling Kit (NanoTemper).
Specifically, 20 µM of the protein was dissolved in PBS (pH 7.4) buffer, mixed with the fluorescent reagent, and reacted at room temperature under dark conditions for 30 minutes. The mixture was then buffered with MST analysis buffer (50 mM HEPES, 150 mM NaCl, 1 mM DTT, 0.05% Tween-20, pH 7.5). […]
The reaction samples were injected into an MST-specific capillary (NanoTemper) and analyzed using a Monolith NT.115 device (NanoTemper) under laser intensity conditions. […]
The measured data were analyzed using MO. Affinity Analysis software (NanoTemper), and the dissociation constant (Kd) was calculated from the binding curve.

Regarding “12-[4-(2,2-dimethylmorpholin-4-yl)]dodecyl-N-(6-aminopurine-2-yl) carboxamide [Compound 11]”, the “Relative cell viability (%)” value in data set [1] (1 μM) turned out to be 44.06%; in data set [1] (10 μM), 37.40%; in data set [1] (30 μM) it was 36.80%; in data set [1] (50 μM), 38.87%; in data set [2] (T24, 1 μM) it was 28.15%; in data set [2] (T24, 10 μM), 31.17%. The “Relative cell viability (%)” value in data set [2] (T24, 30 μM) is on record as 30.42%; in data set [2] (T24, 50 μM) it was 29.34%; in data set [3], 31.19%.

Take `Nc1ncccc1C(=O)NCCCCCCCCCCCCN1CCNCC1` [Compound 14, 2-Amino-N-(12-(piperazin-1-yl)dodecyl)nicotinamide]: the “binding affinity of full-length PDK1 compared to the PDK fragment” value in data set [4] is “approximately six times stronger”.
